Common to all, as to test: antifungal (yeast) sensitivity, inhibitor dilution assay in microtiter format
What all share (settings): YNB/G, lowest concentration to prevent growth, 24 to 48 hours, 35° C., read-out: Minimum Inhibitory Concentration

In one assay the test system is C. tropicalis MY1012. The assay is classed as cell-based, Candida tropicalis. The procedure: (§1) The compounds are particularly active towards filamentous fungi and yeasts including Candida albicans and Cryptococcus neoformans. The sensitivity of filamentous fungi and yeast was determined using inhibitor dilution assays in microtiter format. The compounds were dissolved in DMSO at 2 mg/ml and serially diluted in 0.1M phosphate buffer, pH 7.0 in the microtiter dish from 100 to 0.006 μg/ml. A standardized spore suspension for testing the filamentous fungi was prepared by inoculating Antibiotic Medium #3 containing 1.5% agar with spores such that 1.5×10^3 colony forming units were added per well. The microtiter wells were filled with 50 μl of buffer containing compound and 50 μl of inoculated medium.
(§2) The sensitivity of yeasts was determined by inoculating yeast nitrogen base containing 1% dextrose (YNB/G) with aliquots of an overnight yeast culture grown in Yeast Morphology (YM) media at 35° C. and diluting in YNB/G to yield a final concentration of 1.5-7.5×10^3 colony forming units/well. To test the sensitivity of yeast, compound was solubilized in 10 percent aqueous DMSO at 2.56 mg/ml. The compound was diluted serially in YNB/G from 128 to 0.06 μg/ml and further diluted 1:10 in YNB/G. The wells were filled with 150 μl of media containing drug. […]

Another assay concerns C. parapsilosis MY1010. It is filed as cell-based, Candida parapsilosis. The method, then: as §1, §2
A further assay relates to Crypt. neoformans MY1051. The assay is classed as cell-based, Cryptococcus neoformans. The method, then:
as §1, §2

≈ marks a conversion by molar mass, not a printed value.

With `CC(=O)OC(CCCC12OC(C(=O)O)C(O)(C(=O)O)C(C(=O)O)(O1)C(OC(=O)CCC=CC(C)CCCc1ccccc1)C2O)C(C)Cc1ccccc1` (stereo not drawn) [Compound A], the MIC in the assay on C. tropicalis MY1012 turned out to be 8 µg/mL (≈ 10.6 µM); with C. parapsilosis MY1010, 8 µg/mL (≈ 10.6 µM); in the assay with Crypt. neoformans MY1051, 1 µg/mL (≈ 1.32 µM).

The values are drawn from patent publication US5102907A, “Novel squalene synthetase inhibitors” (Merck & Co., Inc., priority 1990, dated 1992).
